From patent publication US4093626A, “β-Lactam antibiotics” (Beecham Group Limited, priority 1976, dated 1978)

Experiments:
[1] = biological target: β-lactamase enzyme produced by Staphylococcus aureus Russell (Staphylococcus aureus, UniProt P00807); experiment: Inhibition of the β-lactamase from Staphylococcus aureus Russell (I50); assay type: biochemical; details: β-lactamase from Staph. aureus Russell
Protocol: Inhibition of the β-lactamase from Staphylococcus aureus Russell
I50 values were determined using the process described in Belgium Pat. No. 827,926.

Staph. aureus Russell [2] = experiment: Antibacterial activity (M.I.C.) against Staphylococcus aureus Russell; assay type: cell-based; details: compound alone
Excerpt: (§1) Antibacterial activity and antibacterial synergy with ampicillin against Staphylococcus aureus Russell

Staph. aureus Russell [3] = experiment: Antibacterial synergy with ampicillin against Staphylococcus aureus Russell (M.I.C. of ampicillin in presence of compound); assay type: cell-based; details: inhibitor conc. 20 μg/ml
Excerpt: as §1

Acute toxicity in mice = assay type: in vivo
Protocol: The compound (mixture of 2 isomers) from Example 6.2 was tested for acute toxicity in mice as described below.
Mice: CDI, female, 18 - 22 gm. 5 mice per group
The compound was injected in aqueous dimethylformamide (≤15% DMF) at 0.4 ml/20 g for the 2000 mg./Kg. dosage and at 0.2 ml/20 g. for the other dosages.

Chain of β-lactamase enzyme produced by Staphylococcus aureus Russell (P00807 25-281): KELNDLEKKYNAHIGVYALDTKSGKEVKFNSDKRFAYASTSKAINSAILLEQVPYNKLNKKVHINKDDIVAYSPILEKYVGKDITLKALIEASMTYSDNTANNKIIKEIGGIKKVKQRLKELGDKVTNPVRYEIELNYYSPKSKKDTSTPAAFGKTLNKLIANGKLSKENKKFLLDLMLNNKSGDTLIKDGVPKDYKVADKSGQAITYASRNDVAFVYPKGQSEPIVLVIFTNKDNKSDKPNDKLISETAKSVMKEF

## O=C1C[C@@H]2O[C@@H](CBr)CN12 (racemic) [Example 2.2, (3RS, 5SR)-3-Bromomethyl-4-oxa-1-azabicyclo[3.2.0]heptan-7-one]
[1]
  IC50: 14.6 µM

## O=C1C[C@@H]2O[C@@H](CSc3ccccc3)CN12 (racemic) [Example 7, (3RS, 5SR)-3-Phenylthiomethyl-4-oxa-1-azabicyclo[3.2.0]heptan-7-one]
[1]
  IC50: 10.2 µM

## O=C(OC[C@H]1CN2C(=O)C[C@@H]2O1)c1ccc([N+](=O)[O-])cc1 (racemic) [Example 14, (3RS, 5SR)-3-p-Nitrobenzoyloxymethyl-4-oxa-1-azabicyclo[3.2.0]heptan-7-one]
[1]
  IC50: 15.1 µM

## O=C1C[C@@H]2O[C@@H](COc3ccc([N+](=O)[O-])cc3)CN12 (racemic) [Example 15, (3RS, 5SR)-3-p-Nitrophenoxymethyl-4-oxa-1-azabicyclo[3.2.0]heptan-7-one]
[1]
  IC50: 16.7 µM

## O=C1C[C@@H]2O[C@@H](CS(=O)(=O)c3ccc([N+](=O)[O-])cc3)CN12 (relative stereo) [Example 0-20]
[1]
  IC50: 5.44 µM

## O=C(Nc1ccccc1)OC[C@H]1CN2C(=O)C[C@@H]2O1 (relative stereo) [Example 22, (3RS, 5SR)-3-(N-Phenylcarbamoyloxymethyl)-4-oxa-1-azabicyclo[3.2.0]heptan-7-one]
[1]
  IC50: 9.15 µM

## O=C1C[C@@H]2O[C@@H](C[S+]([O-])c3ccc([N+](=O)[O-])cc3)CN12 (single isomer, unassigned) [Example 20 (isomer I), (3RS, 5SR)-3-p-Nitrophenylsulphinylmethyl-4-oxa-1-azabicyclo[3.2.0] heptan-7-one]
[1]
  IC50: 2.7 µM

## (3RS, 5RS)- and (3RS, 5SR)-3-(2-Bromoethyl)-4-oxa-1-azabicyclo[3.2.0]heptan-7-one [Example 6.2]
Staph. aureus Russell [2]
  M.I.C.: 500 µg/mL
Staph. aureus Russell [3]
  M.I.C. Ampicillin: 0.4 µg/mL
Acute toxicity in mice; 250 mg./Kg. subcutaneous, Day 2
  Number of mice alive: 5/5
Acute toxicity in mice; 250 mg./Kg. subcutaneous, Day 3
  Number of mice alive: 5/5
Acute toxicity in mice; 250 mg./Kg. subcutaneous, Days 0 and 1
  Number of mice alive: 5/5
Acute toxicity in mice; 250 mg./Kg. subcutaneous, Days 4 to 7
  Number of mice alive: 5/5
Acute toxicity in mice; 500 mg./Kg. subcutaneous, Day 2
  Number of mice alive: 5/5
Acute toxicity in mice; 500 mg./Kg. subcutaneous, Day 3
  Number of mice alive: 5/5
Acute toxicity in mice; 500 mg./Kg. subcutaneous, Days 0 and 1
  Number of mice alive: 5/5
Acute toxicity in mice; 500 mg./Kg. subcutaneous, Days 4 to 7
  Number of mice alive: 5/5
Acute toxicity in mice; 1000 mg./Kg. subcutaneous, Day 2
  Number of mice alive: 5/5
Acute toxicity in mice; 1000 mg./Kg. subcutaneous, Day 3
  Number of mice alive: 5/5
Acute toxicity in mice; 1000 mg./Kg. subcutaneous, Days 0 and 1
  Number of mice alive: 5/5
Acute toxicity in mice; 1000 mg./Kg. subcutaneous, Days 4 to 7
  Number of mice alive: 5/5
Acute toxicity in mice; 2000 mg./Kg. subcutaneous, Day 2
  Number of mice alive: 3/5
Acute toxicity in mice; 2000 mg./Kg. subcutaneous, Day 3
  Number of mice alive: 2/5
Acute toxicity in mice; 2000 mg./Kg. subcutaneous, Days 0 and 1
  Number of mice alive: 5/5
Acute toxicity in mice; 2000 mg./Kg. subcutaneous, Days 4 to 7
  Number of mice alive: 2/5
Acute toxicity in mice; 2000 mg./Kg. subcutaneous, end of observation period (7 days)
  Survival and weight gain of remaining mice: the other two remained alive and had gained weight
Acute toxicity in mice; 2000 mg./Kg. subcutaneous, within 3 days
  Deaths: three out of the five mice were dead
Acute toxicity in mice; dosages up to 100 mg./Kg. subcutaneous, 7 days
  Survival and weight gain over the observation period: all mice remained alive and gained in weight
